Source: US11191762B2, “Alkyl substituted triazole compounds as agonists of the APJ Receptor” (priority 2016, dated 2021)

target: human APJ receptor (Homo sapiens (Human), UniProt P35414); experiment: biochemical; assay type: biochemical; settings: not given
How it was run: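 [35S]GTPγS binding to membranes from CHO cells stably expressing human APJ, captured on WGA PS beads (5 μg/well). Buffer: 20 mM HEPES pH 7.5, 5 mM MgCl2, 100 mM NaCl, 0.1% BSA, with 3 μM GDP and 0.1 nM [35S]GTPγS final; compounds tested as 22-point 2-fold dilutions.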

human APJ receptor, sequence (P35414 whole entry): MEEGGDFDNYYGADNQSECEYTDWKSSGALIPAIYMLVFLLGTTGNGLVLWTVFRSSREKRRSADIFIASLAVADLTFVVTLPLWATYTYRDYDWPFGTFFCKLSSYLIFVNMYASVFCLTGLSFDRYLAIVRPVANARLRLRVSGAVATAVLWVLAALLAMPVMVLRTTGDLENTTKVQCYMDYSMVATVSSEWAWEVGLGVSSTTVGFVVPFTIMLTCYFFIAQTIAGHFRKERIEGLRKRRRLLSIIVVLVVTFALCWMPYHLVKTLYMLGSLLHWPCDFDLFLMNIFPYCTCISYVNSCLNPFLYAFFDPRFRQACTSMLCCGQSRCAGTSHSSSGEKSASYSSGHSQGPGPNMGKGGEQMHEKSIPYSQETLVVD

Structure (SMILES) | EC50 [nM]
[2H]C([2H])([2H])OCc1nnc(NS(=O)(=O)[C@@H](C)[C@H](OC)c2ncc(Cl)cn2)n1-c1c(OC)cccc1OC [Example 129.0, (1R,2S)-1-(5-chloro-2-pyrimidinyl)-N-(4-(2,6-dimethoxyphenyl)-5-(((˜2-H_3_)methyloxy)methyl)-4H-1,2,4-triazol-3-yl)-1-methoxy-2-propanesulfonamide] | 4.3
COc1cccc(OC)c1-n1c(COC(F)F)nnc1NS(=O)(=O)[C@@H](C)[C@H](OC)c1ncc(Cl)cn1 [Example 65.0, (1R,2S)-1-(5-chloro-2-pyrimidinyl)-N-(5-((difluoromethoxy)methyl)-4-(2,6-dimethoxyphenyl)-4H-1,2,4-triazol-3-yl)-1-methoxy-2-propanesulfonamide] | 5.7

same assay, conditions: [35S]GTPγS binding, membranes from CHO cells stably expressing human APJ receptor; read-out: Activity hAPJ SPA EC50 IP

Structure (SMILES) | EC50 [nM]
COc1ncnc(OC)c1-n1c(CC2CCCC2)nnc1NS(=O)(=O)[C@@H](C)[C@H](OC)c1ncc(Cl)cn1 [Example 28.0, (1R,2S)-1-(5-chloro-2-pyrimidinyl)-N-(5-(cyclopentylmethyl)-4-(4,6-dimethoxy-5-pyrimidinyl)-4H-1,2,4-triazol-3-yl)-1-methoxy-2-propanesulfonamide] | 4.5
COc1ncnc(OC)c1-n1c(NS(=O)(=O)[C@@H](C)[C@H](OC)c2ncc(Cl)cn2)nnc1C(C)C [Example 133.0, (1R,2S)-1-(5-chloro-2-pyrimidinyl)-N-(4-(4,6-dimethoxy-5-pyrimidinyl)-5-(2-propanyl)-4H-1,2,4-triazol-3-yl)-1-methoxy-2-propanesulfonamide] | 22
COCc1nnc(NS(=O)(=O)[C@@H](C)[C@H](OC)c2ncc(Cl)cn2)n1-c1c(Cl)cccc1Cl [Example 157.0] | > 12500
COCc1nnc(NS(=O)(=O)[C@@H](C)[C@@H](OC(C)C)c2ncc(C)cn2)n1-c1c(F)cccc1F [Example 30.0, (1S,2S)-N-(4-(2,6-difluorophenyl)-5-(methoxymethyl)-4H-1,2,4-triazol-3-yl)-1-(1-methylethoxy)-1-(5-methyl-2-pyrimidinyl)-2-propanesulfonamide] | 240
CO[C@H](c1ncc(Cl)cn1)[C@H](C)S(=O)(=O)Nc1nnc(CC(F)(F)F)n1C1CCOCC1 [Example 139.0] | > 4200
CC[C@@H](OC)c1nnc(NS(=O)(=O)[C@@H](C)[C@H](C)c2ncc(Cl)cn2)n1-c1c(OC)ncnc1OC (single isomer, unassigned) [Example 7.0, (2S,3R)-3-(5-chloro-2-pyrimidinyl)-N-(4-(4,6-dimethoxy-5-pyrimidinyl)-5-((1R)-1-methoxypropyl)-4H-1,2,4-triazol-3-yl)-2-butanesulfonamide or (2S,3R)-3-(5-chloro-2-pyrimidinyl)-N-(4-(4,6-dimethoxy-5-pyrimidinyl)-5-((1S)-1-methoxypropyl)-4H-1,2,4-triazol-3-yl)-2-butanesulfonamide] | 360
COc1ncnc(OC)c1-n1c(NS(=O)(=O)[C@@H](C)[C@H](C)c2ncc(Cl)cn2)nnc1[C@@H](C)OC(C)C (single isomer, unassigned) [Example 3.0, (2S,3R)-3-(5-chloro-2-pyrimidinyl)-N-(4-(4,6-dimethoxy-5-pyrimidinyl)-5-((1R)-1-(1-methylethoxy)ethyl)-4H-1,2,4-triazol-3-yl)-2-butanesulfonamide or (2S,3R)-3-(5-chloro-2-pyrimidinyl)-N-(4-(4,6-dimethoxy-5-pyrimidinyl)-5-((1S)-1-(1-methylethoxy)ethyl)-4H-1,2,4-triazol-3-yl)-2-butane sulfonamide] | 320

same assay, conditions: read-out: Activity hAPJ SPA EC50 IP

Structure (SMILES) | EC50 [nM]
COCc1nnc(NS(=O)(=O)[C@@H](C)[C@@H](OC(C)C)c2ncc(F)cn2)n1-c1c(OC)cccc1OC [Example 154.0] | 6.6
COCc1nnc(NS(=O)(=O)[C@@H](C)[C@H](OC)c2ccc(Cl)cn2)n1-c1c(OC)cccc1OC [Example 76.0, (1R,2S)-1-(5-chloropyridin-2-yl)-N-(4-(2,6-dimethoxyphenyl)-5-(methoxymethyl)-4H-1,2,4-triazol-3-yl)-1-methoxypropane-2-sulfonamide] | 4.8
